The values below come from US12448376B2, “Phenothiazine ferroptosis inhibitor, preparation method therefor and application thereof” (CHENGDU HENGHAO INNOVATIVE SCIENCE AND TECHNOLOGY CO., LTD., priority 2019, dated 2025).

The subject of one data set is fibrosarcoma cell line. In words: Ferroptosis screening model, MTT cell viability assay with Erastin induction. It counts as cell-based. As for the experimental part: In this example, in order to study the inhibitor of ferroptosis, a screening model for ferroptosis was constructed in house, and the details are as follows:
The screening model for ferroptosis mainly used the MTT cell viability assay. First, the fibrosarcoma cell line was cultured in a dish, and the cells in the logarithmic growth phase were seeded in a 96-well plate in specific numbers (3000-10000 cells/well), 100 μL per well, and then cultured in an incubator at 37° C. and 5% CO2 to allow the cells to adhere. After 24 h, 100 μL of compounds at certain concentrations prepared in the indicated medium and the ferroptosis inducer Erastin (final concentration of 10 μM) were added, and wells in triplicate were set up for each compound to ensure the accuracy of the results. A negative control group, positive control group (5 μM of ferrostain-1), blank control group and solvent control group were also set. After dosing, cells were placed in the incubator and cultured for 72 h. On the day of the MTT test, MTT test solution (5 mg/mL MTT solution dissolved in physiological saline, stored at 4° C. in the dark) was pre-prepared, and 20 μL was added to each well. Cells were placed in the incubator and cultured for another 2-4 h. Then, 50 μL of 20% SDS solution (dissolved in MiliiQ water, added with 1% concentrated hydrochloric acid) was added to each well, and cells were placed in the incubator overnight. The next day, the absorbance value at 570 nm was detected with a microplate reader to calculate the inhibition rate of the drug on ferroptosis. Generally, the absorbance value of the control group should be between 0.8-1.2 as a normal value.
The curve of inhibition rate change was fitted using Graph Pad Prism 5 software to obtain EC50.
In general terms: Tetrazolium assays rely on reduction of a dye to a coloured formazan, in cell work by metabolically active cells.

In the next data set the target is T1, human hERG ion channel (Homo sapiens, UniProt Q12809).
T1 construct: expressed in transfected cells; host or cells: HEK293 cells stably expressing hERG
T1 sequence (Q12809 whole entry): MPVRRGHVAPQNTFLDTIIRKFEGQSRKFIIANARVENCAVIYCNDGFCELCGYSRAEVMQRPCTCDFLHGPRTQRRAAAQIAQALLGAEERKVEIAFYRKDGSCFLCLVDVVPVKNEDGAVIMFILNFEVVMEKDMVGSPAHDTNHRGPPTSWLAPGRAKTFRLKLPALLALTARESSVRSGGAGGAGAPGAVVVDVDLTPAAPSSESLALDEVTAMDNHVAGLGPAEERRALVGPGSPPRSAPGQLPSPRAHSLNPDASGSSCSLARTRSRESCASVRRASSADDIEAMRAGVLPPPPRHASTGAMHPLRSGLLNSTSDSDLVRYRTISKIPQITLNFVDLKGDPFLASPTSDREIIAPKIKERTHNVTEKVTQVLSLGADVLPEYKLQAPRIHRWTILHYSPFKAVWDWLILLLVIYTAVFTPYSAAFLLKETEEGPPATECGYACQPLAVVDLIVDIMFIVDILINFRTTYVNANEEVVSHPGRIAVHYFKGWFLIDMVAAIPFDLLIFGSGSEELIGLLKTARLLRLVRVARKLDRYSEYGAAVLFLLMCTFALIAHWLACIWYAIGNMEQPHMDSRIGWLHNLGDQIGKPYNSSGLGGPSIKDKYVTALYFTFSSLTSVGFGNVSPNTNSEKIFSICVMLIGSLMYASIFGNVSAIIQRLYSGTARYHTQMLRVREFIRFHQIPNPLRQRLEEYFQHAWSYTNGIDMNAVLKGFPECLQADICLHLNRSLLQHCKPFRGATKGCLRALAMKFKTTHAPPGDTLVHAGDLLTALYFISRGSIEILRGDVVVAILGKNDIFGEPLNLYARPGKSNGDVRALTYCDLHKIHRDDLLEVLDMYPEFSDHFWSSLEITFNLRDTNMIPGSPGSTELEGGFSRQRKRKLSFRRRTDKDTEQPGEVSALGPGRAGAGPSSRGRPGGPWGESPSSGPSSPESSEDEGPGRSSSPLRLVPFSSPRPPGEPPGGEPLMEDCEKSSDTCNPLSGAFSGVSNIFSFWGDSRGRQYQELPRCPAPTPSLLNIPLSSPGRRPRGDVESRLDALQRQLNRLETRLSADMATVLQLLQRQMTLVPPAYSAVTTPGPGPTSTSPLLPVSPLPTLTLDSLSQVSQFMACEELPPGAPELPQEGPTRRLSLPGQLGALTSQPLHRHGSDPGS
In words: hERG whole-cell patch clamp in HEK293 cells. It counts as cell-based. The following applies: for pIC50: hERG tail current, HEK293 cells, 0.3-30 μM, room temperature. As for the experimental part: Effect of Compounds of the Present Disclosure on Human hERG Ion Channel Expressed in HEK293 Cells at Steady State Determined by Patch Clamp
The hERG ion channel steady-state expressing HEK293 cells were transferred to a perfusion tank and perfused with extracellular fluid at room temperature. Each cell was used as a control. All test compounds were dissolved by shaking with dimethyl sulfoxide and prepared as serial concentrations of 0.3 μM, 1 μM, 3 μM, 10 μM and 30 μM. The test compounds were perfused using a perfusion system utilizing their own gravity. At least two cells were tested for each concentration. After the current was stable (or 5 min), the current magnitude changes before and after the compound was used were compared to calculate the blocking effect of the compound. Test electrodes were pulled with PC-10. Whole-cell patch clamp was used to record, with noise filtered at one-fifth of the sampling frequency. […] This procedure was repeated every 15 seconds. hERG tail currents were pure hERG currents. After the current was stabilized, the administration was performed by continuous extracellular perfusion from low concentration to high concentration. Starting from a low concentration, perfusion was continued until the drug effect was stable, and then perfusion of the next concentration was performed.
Stimulus delivery and signal acquisition were performed by the Patch Master software. The signal was amplified with a patch clamp amplifier with a filtering of 10 KHz. Fit Master, EXCEL, Graph Pad Prism and SPSS 21.0 were used for further data analysis and curve fitting. In data processing, when judging the blocking effect on hERG the peak value of the tail current and its baseline were corrected. The effect of each compound at different concentrations was expressed by the inhibition rate of the tail current. Inhibition rate %=100×(peak value of tail current before administration-peak value of tail current after administration)/peak value of tail current before administration
IC50 values were fitted by the Hill equation: […]
A general note: Block of hERG is tested as a sign of cardiac risk.

The subject of data set [1] is middle cerebral artery occlusion (MCAO) cerebral stroke model in rat. The data set is described as follows: Rat MCAO cerebral stroke model, single administration, TTC staining. The format is in vivo, SD rats. The following applies: for Infarct area weight: tail vein injection within 10 min of reperfusion; for Infarct area weight / Infarct size: 24 h after reperfusion; for Inhibition rate of cerebral infarction / Infarct size: tail vein injection; for Inhibition rate of cerebral infarction: calculated from infarct size against model control; for Infarct size: infarct tissue weight as percentage of whole brain. As for the experimental part:
Through the middle cerebral artery occlusion (MCAO) cerebral stroke model (also known as cerebral ischemia model) in rat, the therapeutic effects of the compounds of the present disclosure at different doses and single administration on ischemic cerebral stroke in SD rats were studied. […] The ischemic rats were placed at room temperature to keep their body temperature at 37° C. After 90 min, the suture was pulled out for reperfusion. […] After 24 h of reperfusion, the animals were scored by NSS to evaluate neurological function, and then the animals were dissected to remove the brain for TTC staining. By determining the size of cerebral infarction and calculating the inhibition rate, the therapeutic effects of the test compounds on ischemic cerebral stroke in rats were evaluated comprehensively. […] The percentage of infarct tissue weight in the whole brain was used as the infarct size (%), and the inhibition rate (%) of each drug treatment group was calculated based on the infarct size. The inhibition rate was calculated with the following formula: [formula] 2.

A short description of data set [2]: Hemolysis reaction (statement only, no method).
[3] abbreviates: 72 h, inhibition of ferroptosis induced by Erastin 10 μM, MTT; average of three tests.
Where [4] appears, read: summary of Table 1, compared with positive drug ferrostain-1.
Setting [5] is: inhibition of ferroptosis induced by Erastin 10 μM, 72 h, MTT; average of three tests.

SMILES strings stand for the structures. pEC50, pIC50: −log10 of the molar value. A value given as a limit tells only on which side of the number the result lay.

In turn, `C=C(c1ccc2c(c1)Nc1ccccc1S2)c1cnc2c(ccn2C)c1` [Compound 34] had a pEC50 with fibrosarcoma cell line (setting [3]) of 7.38.
In the case of `C=C(c1ccc2c(c1)CCN2C(C)=O)c1ccc2c(c1)Nc1ccccc1S2` [Compound 16], the pEC50 in the data set on fibrosarcoma cell line (setting [3]) is 8.00.
Turning to `C=C(c1ccc2c(c1)Nc1ccccc1S2)c1cnc2c(cnn2C2CCNCC2)c1` [Compound 36], the pEC50 with fibrosarcoma cell line (setting [3]) is 7.80.
Same read-out and setting: under `C=C(c1ccc2c(c1)Nc1ccccc1S2)c1ccc2c(C(=O)NCCN3CCOCC3)c[nH]c2c1` [Compound 6] stands 7.82.
Same read-out and setting: under `C=C(c1ccc2c(c1)Nc1ccccc1S2)c1cnc2c(cnn2CCOC)c1` [Compound 27] stands 7.14; under `C=C(c1ccc2c(c1)Nc1ccccc1S2)c1cnc2nc(C(=O)NCCN(C)C)cn2c1` [Compound 22], 7.85; under `C=C(c1ccc2c(c1)Nc1ccccc1S2)c1cn2cc(C(=O)N[C@H](C)c3cccc4ccccc34)nc2cn1` [Compound 25], 7.26.
Consider `C=C(c1ccc2c(c1)Nc1ccccc1S2)c1ccc2ncccc2c1` [Compound 14], for which the “effect on the human hERG ion channel (in words)” value at human hERG ion channel (HEK293 cells in a steady state) is reported as “no significant effect”. Besides, the pIC50 on human hERG ion channel was under 4.52. Moreover, the “improvement of cardiac safety compared with compound 59 of CN111574474A” value on human hERG ion channel (ratio of hERG IC50 values) is “about 50 times”. In addition, in the data set on fibrosarcoma cell line (setting [3]), the pEC50 is 8.22. Besides, in the data set on fibrosarcoma cell line (setting [4]), the “inhibitory effects on ferroptosis (in words)” value is “excellent inhibitory effects on ferroptosis, significantly better than the positive drug ferrostain-1”. Besides, in data set [1] (2.5 mg/kg), the Infarct area weight is reported as 0.15 ± 0.07 g, the “Inhibition rate of cerebral infarction” value is 14.0% and the Infarct size was 12.11 ± 5.69%. Besides, in data set [1] (5 mg/kg), the Infarct area weight is recorded as 0.12 ± 0.05 g, the “Inhibition rate of cerebral infarction” value was 29.3% and the Infarct size amounted to 9.95 ± 4.69%. Further, in data set [1] (high and low dose administration groups), the “range of necrosis of brain tissue lesions (in words)” value was “reduce the range of necrosis of brain tissue lesions”. The “hemolysis reaction (in words)” value in data set [2] is “no hemolysis reaction”.
`C=C(c1ccc(S(=O)(=O)NC2CCN(C)CC2)cc1)c1ccc2c(c1)Nc1ccccc1S2` [Comparative Compound 2, reference compound] had a negative logarithm of the IC50 (pIC50) against human hERG ion channel of 6.15.
For the molecule `C=C(c1ccc2c(c1)Nc1ccccc1S2)c1ccc2c(C=O)c[nH]c2c1` [Compound 10], the pEC50 in the data set on fibrosarcoma cell line (setting [3]) is 7.82.
In the data set on fibrosarcoma cell line (setting [3]), `C=C(c1ccc2c(c1)Nc1ccccc1S2)c1ccc2cc(C(=O)NCCN3CCOCC3)[nH]c2c1` [Compound 9] had a pEC50 of 7.92.
For the molecule `CC(c1ccc(N2CCN(C)CC2)cc1)c1ccc2c(c1)Nc1ccccc1S2` (stereo not drawn) [Comparative Compound 1, reference compound], the Infarct area weight in data set [1] (2.5 mg/kg) is 0.14 ± 0.07 g; in data set [1] (5 mg/kg) it was 0.11 ± 0.05 g. The “Inhibition rate of cerebral infarction” value was 19.0% in data set [1] (2.5 mg/kg) and 33.6% in data set [1] (5 mg/kg).
In the data set with fibrosarcoma cell line (setting [3]), `C=C(c1ccc2c(c1)Nc1ccccc1S2)c1cn2cc(C(=O)NCC3CCOCC3)nc2cn1` [Compound 24] showed a pEC50 of 7.25.
In the data set on fibrosarcoma cell line (setting [3]), `C=C(c1ccc2c(c1)Nc1ccccc1S2)c1cnc2c(cnn2CC2CCN(C(=O)OC(C)(C)C)CC2)c1` [Compound 4] gave a pEC50 of 7.12.
`C=C(c1ccc2c(c1)Nc1ccccc1S2)c1cnc2c(cnn2C2CN(C(=O)OC(C)(C)C)C2)c1` [Compound 30]: in the data set with fibrosarcoma cell line (setting [3]), the pEC50 was 7.04.
Same read-out and setting: next, `C=C(c1ccc2c(c1)Nc1ccccc1S2)c1ccc2c(c1)SCC(=O)N2` [Compound 11]: 7.48.
In turn, `C=C(c1ccc2c(c1)Nc1ccccc1S2)c1cnc2c(cnn2C2CCOC2)c1` (stereo not drawn) [Compound 19] showed a negative-log EC50 (pEC50) with fibrosarcoma cell line (setting [5]) of 7.89.
For `C=C(c1ccc2c(c1)Nc1ccccc1S2)c1cn2cc(C(=O)N[C@H](C)c3ccccc3)nc2cn1` [Compound 26], in the data set on fibrosarcoma cell line (setting [3]), the pEC50 was 7.12.
In the case of `CCCCC1OC(=O)c2ccccc21` (stereo not drawn) [Positive drug, butylphthalide, reference compound], in data set [1] (5 mg/kg), the Infarct area weight stood at 0.18 ± 0.09 g, the “Inhibition rate of cerebral infarction” value was 1.1% and the Infarct size was determined as 13.93 ± 6.97%.
`C=C(c1ccc2c(c1)Nc1ccccc1S2)c1cnc2c(cnn2CC2CCOCC2)c1` [Compound 2]: the negative logarithm of the EC50 (pEC50) with fibrosarcoma cell line (setting [3]) was 7.42.
With `CCOC(=O)c1ccc(NC2CCCCC2)c(N)c1` [Ferrostain-1, Ferrostatin-1, reference compound], the pEC50 with fibrosarcoma cell line (72 h) is 7.22.
As to `C=C(c1ccc2c(c1)Nc1ccccc1S2)c1cnc2c(cnn2C2CCN(C)CC2)c1` [Compound 20], the pEC50 in the data set on fibrosarcoma cell line (setting [3]) was 9.70. In addition, the “inhibitory effects on ferroptosis (in words)” value in the data set with fibrosarcoma cell line (setting [4]) is recorded as “excellent inhibitory effects on ferroptosis, significantly better than the positive drug ferrostain-1”.
`C=C(c1ccc2c(c1)Nc1ccccc1S2)c1cnc2c(cnn2CC)c1` [Compound 33] gave a pEC50 with fibrosarcoma cell line (setting [3]) of 7.17.
Same read-out and setting: under `C=C(c1ccc2c(c1)Nc1ccccc1S2)c1cnc2sccc2c1` [Compound 35] stands 7.13; under `C=C(c1ccc2c(c1)Nc1ccccc1S2)c1ccc2c(c1)OCCO2` [Compound 13], 7.43; under `C=C(c1ccc2c(c1)Nc1ccccc1S2)c1cnc2[nH]ncc2c1` [Compound 31], 7.96.
For the molecule `C=C(c1ccc2c(c1)Nc1ccccc1S2)c1cnc2c(cnn2C2CCN(C(=O)OC(C)(C)C)CC2)c1` [Compound 29], the pEC50 in the data set on fibrosarcoma cell line (setting [3]) is 7.54.
Consider `C=C(c1cnc2c(c1)CCN2)c1ccc2c(c1)Nc1ccccc1S2` [Compound 17], for which the pEC50 in the data set with fibrosarcoma cell line (setting [3]) was 7.05.
The same measure, in the same setting: next, `C=C(c1ccc2c(c1)Nc1ccccc1S2)c1ccc2c(c1)OC(F)(F)O2` [Compound 15]: 8.00; `C=C(c1ccc2c(c1)Nc1ccccc1S2)c1cn2cc(C(=O)NC3CCOCC3)nc2cn1` [Compound 23]: 7.17.
On to `C=C(c1ccc2c(c1)Nc1ccccc1S2)c1cnc2c(cnn2C2CN(C(=O)OC(C)(C)C)C2)c1` [Compound 8], for which the negative-log EC50 (pEC50) in the data set on fibrosarcoma cell line (setting [5]) is 7.26.
`C=C(c1ccc2c(c1)Nc1ccccc1S2)c1cnc2c(cnn2C2CCOC2)c1` (stereo not drawn) [Compound 32] gave a pEC50 in the data set on fibrosarcoma cell line (setting [5]) of 7.30.
In the case of `C=C(c1ccc2c(c1)Nc1ccccc1S2)c1cn2ccnc2c(N2CCOCC2)n1` [Compound 7], the pEC50 in the data set on fibrosarcoma cell line (setting [3]) is 7.62.

In general, pEC50 refers to the negative decadic logarithm of the EC50, by convention in mol/L. A lower pEC50 goes with a high EC50. The pIC50 is −log10 of the IC50, conventionally taken in molar units.
